The MIC is the lowest concentration found to suppress growth. Lower therefore signals greater potency.

We go through eight compounds from DBAASP.

The structures appear in SMILES notation. Values after ≈ are worked out from the molar mass of the structure shown. Values joined by “and” are separate entries in the source; they are usually repeats but may differ in a detail not shown here. Equal values may be shown once. Some results are limits rather than exact numbers.

Some test systems named below: Candida albicans; Escherichia coli 1005; Corynebacterium xerosis; Escherichia coli UB1005; Listeria monocytogenes; Streptococcus mitis; Escherichia coli O157; Salmonella typhimurium.
What all share (assay): ≥ marks a high value that may be exact or a test limit, other limits are often not marked, values filed in µg/mL are converted to µM
Experiment [1] concerns Candida krusei CGMCC 2.1857.
Experiment [2] relates to Candida parapsilosis CGMCC 2.3989.
For experiment [3], the system named is Candida tropicalis CGMCC 2.1975.
In experiment [4] the test system is Salmonella enterica subsp. enterica serovar Pullorum ATCC 7913.
Experiment [5] relates to Salmonella enterica subsp. enterica serovar Typhimurium ATCC 14028.
In experiment [6] the test system is Staphylococcus aureus ATCC 25923.
Experiment [7] relates to Staphylococcus aureus ATCC 29213.
In experiment [8] the test system is Staphylococcus aureus ATCC 43300.
For experiment [9], the system named is Staphylococcus epidermidis ATCC 12228.
In experiment [10] the test system is Enterococcus faecalis ATCC 29212.
Experiment [11] has as its system Pseudomonas aeruginosa K799.
For experiment [12], the system named is Salmonella enterica subsp. enterica serovar Typhimurium ATCC 14028s.
In experiment [13] the test system is Staphylococcus epidermidis C621.
Experiment [14] relates to Streptococcus pneumoniae ATCC 49619.
The test system of experiment [15] is Streptococcus pyogenes ATCC 19615.
The test system of experiment [16] is Legionella pneumophila Lens.
The subject of experiment [17] is Escherichia coli ATCC 25922.
Experiment [18] deals with Escherichia coli ATCC 25404.
Experiment [19] concerns Micrococcus luteus ATCC 10420.
Experiment [20] has as its system Staphylococcus epidermidis ATCC 9709.
In experiment [21] the test system is Candida albicans ATCC 10231.
The subject of experiment [22] is Pseudomonas aeruginosa ATCC 15422.
The test system of experiment [23] is Staphylococcus epidermidis KCTC 1917.

`NC(=O)[C@H](Cc1ccccc1)NC(=O)[C@H](Cc1ccccc1)NC(=O)[C@H](CCCN=C(N)N)NC(=O)[C@H](CCCN=C(N)N)NC(=O)[C@H](Cc1ccccc1)NC(=O)[C@H](CCCN=C(N)N)NC(=O)[C@H](CCCN=C(N)N)NC(=O)[C@H](Cc1ccccc1)NC(=O)[C@@H](N)Cc1ccccc1` [FFRRFRRFF]: the minimum inhibitory concentration (MIC) is 11.3 µM (≈ 15.6 µg/mL) with Candida albicans; 4 µM (≈ 5.51 µg/mL) in experiment [1]; no less than 64 µM in [2]; 4 µM (≈ 5.51 µg/mL) in experiment [3]; 8 µM (≈ 11 µg/mL) in the experiment with Escherichia coli 1005; no less than 32 µM in [4]. Also, the MIC in experiment [5] was 4 µM (≈ 5.51 µg/mL); in [6] it was 4 µM (≈ 5.51 µg/mL); in experiment [7] it was 8 µM (≈ 11 µg/mL); in experiment [8], 4 µM (≈ 5.51 µg/mL); in experiment [9], 4 µM (≈ 5.51 µg/mL).

For the compound `CC[C@H](C)[C@H](NC(=O)[C@@H](NC(=O)[C@@H](NC(=O)[C@@H](NC(=O)[C@@H]1CCCN1C(=O)[C@H](CS)NC(=O)[C@H](CCCN=C(N)N)NC(=O)[C@H](CCCN=C(N)N)NC(=O)[C@@H](N)CCCN=C(N)N)[C@@H](C)CC)C(C)C)C(C)C)C(=O)N[C@@H](CCCN=C(N)N)C(=O)N[C@H](C(=O)N[C@@H](CS)C(=O)N[C@@H](CCCN=C(N)N)C(=O)N[C@@H](CCCN=C(N)N)C(=O)O)C(C)C` [RRRCPIVVIRVCRR], the minimal inhibitory concentration (MIC) in the experiment on Corynebacterium xerosis was 0.281 µM (≈ 0.5 µg/mL); in experiment [10], 35.9 µM (≈ 64 µg/mL); in the experiment on Escherichia coli UB1005 it was 4.49 µM (≈ 8 µg/mL); against Listeria monocytogenes, 1.12 µM (≈ 2 µg/mL); in [11], no less than 35.9 µM; in experiment [12], no less than 35.9 µM. Also, the minimal inhibitory concentration (MIC) was greater than 35.9 µM in [6]; 8.98 µM (≈ 16 µg/mL) in experiment [13]; 0.281 µM (≈ 0.5 µg/mL) in the experiment with Streptococcus mitis; no less than 35.9 µM in experiment [14]; 8.98 µM (≈ 16 µg/mL) in experiment [15].

As to `CC[C@H](C)[C@H](NC(=O)[C@@H](NC(=O)[C@@H](NC(=O)[C@@H]1CCCN1C(=O)[C@H](CS)NC(=O)[C@H](CC(C)C)NC(=O)[C@H](CCCN=C(N)N)NC(=O)[C@H](CCCN=C(N)N)NC(=O)[C@@H](N)CCCN=C(N)N)[C@@H](C)CC)C(C)C)C(=O)N[C@@H](CCCN=C(N)N)C(=O)N[C@H](C(=O)N[C@@H](CS)C(=O)N[C@@H](CCCN=C(N)N)C(=O)N[C@@H](CCCN=C(N)N)C(=O)O)C(C)C` [RRRLCPIVIRVCRR], the MIC against Corynebacterium xerosis was 0.278 µM (≈ 0.5 µg/mL); in [10], 17.8 µM (≈ 32 µg/mL); with Escherichia coli UB1005, 2.23 µM (≈ 4 µg/mL); against Listeria monocytogenes, 0.557 µM (≈ 1 µg/mL); in [11], 17.8 µM (≈ 32 µg/mL); in experiment [12], 17.8 µM (≈ 32 µg/mL). The MIC was greater than 35.6 µM in experiment [6]; 4.45 µM (≈ 8 µg/mL) in experiment [13]; 0.557 µM (≈ 1 µg/mL) against Streptococcus mitis; no less than 35.6 µM in experiment [14]; 4.45 µM (≈ 8 µg/mL) in experiment [15].

In [16], `CC[C@H](C)[C@H](NC(=O)[C@H](Cc1ccccc1)NC(=O)[C@H](CC(=O)O)NC(=O)[C@@H](NC(=O)[C@H](C)NC(=O)[C@H](CCCCN)NC(=O)[C@H](CCCCN)NC(=O)[C@@H](NC(=O)[C@H](CC(C)C)NC(=O)[C@H](CC(=O)O)NC(=O)[C@@H](NC(=O)[C@@H](NC(=O)[C@H](Cc1ccccc1)NC(=O)[C@H](CCC(N)=O)NC(=O)[C@@H](N)CCSC)[C@@H](C)CC)[C@@H](C)O)[C@@H](C)CC)C(C)C)C(=O)N[C@@H](CCCCN)C(=O)NCC(=O)N[C@@H](CC(C)C)C(=O)N[C@@H](Cc1ccccc1)C(=O)NCC(=O)N[C@@H](CC(N)=O)C(=O)N[C@@H](CCCCN)C(=O)O` [MQFITDLIKKAVDFIKGLFGNK] showed an MIC of 1.23 µM (≈ 3.11 µg/mL).

Regarding `CC[C@H](C)[C@H](NC(=O)[C@H](CC(C)C)NC(=O)CNC(=O)[C@H](CCCCN)NC(=O)[C@@H](NC(=O)[C@@H](NC(=O)[C@H](CCC(=O)O)NC(=O)[C@@H](NC(=O)[C@H](Cc1ccccc1)NC(=O)[C@H](CCCCN)NC(=O)[C@H](C)NC(=O)[C@@H](NC(=O)[C@@H](NC(=O)[C@H](CC(=O)O)NC(=O)[C@H](C)NC(=O)[C@@H](N)CCSC)C(C)C)[C@@H](C)CC)C(C)C)[C@@H](C)CC)C(C)C)C(=O)N[C@@H](CC(=O)O)C(=O)N[C@@H](CCC(N)=O)C(=O)N[C@@H](Cc1ccccc1)C(=O)N[C@H](C(=O)N[C@@H](CCC(N)=O)C(=O)N[C@@H](CCCCN)C(=O)O)[C@@H](C)O` [MADVIAKFVEIVKGLIDQFTQK], in experiment [16], the MIC amounted to 5.01 µM (≈ 12.5 µg/mL).

Turning to `CC[C@H](C)[C@H](NC(=O)[C@H](CCCN=C(N)N)NC(=O)[C@H](CCCN=C(N)N)NC(=O)[C@@H](NC(=O)[C@@H](NC(=O)[C@@H](N)CCCN=C(N)N)[C@@H](C)CC)[C@@H](C)CC)C(=O)N[C@@H](CCCN=C(N)N)C(=O)N[C@@H](CCCN=C(N)N)C(=O)N[C@H](C(=O)N[C@H](C(=O)N[C@@H](CCCN=C(N)N)C(N)=O)[C@@H](C)CC)[C@@H](C)CC` [RIIRRIRRIIR], the minimal inhibitory concentration (MIC) in the experiment on Candida albicans was 8 µM (≈ 12.2 µg/mL); in [1] it was 4 µM (≈ 6.08 µg/mL); in [2], no less than 64 µM; in [3], 1 µM (≈ 1.52 µg/mL); against Escherichia coli 1005, 8 µM (≈ 12.2 µg/mL); in experiment [17] it was 16 µM and 32 µM. For the same compound, the minimal inhibitory concentration (MIC) in [4] stood at 16 µM (≈ 24.3 µg/mL); in experiment [5] it was 16 µM (≈ 24.3 µg/mL); in experiment [6], 32 µM (≈ 48.6 µg/mL); in experiment [7] it was 64 µM (≈ 97.3 µg/mL); in experiment [8], 16 µM (≈ 24.3 µg/mL); in [9], 16 µM (≈ 24.3 µg/mL).

Take `CC(C)C[C@H](NC(=O)[C@H](CC(C)C)NC(=O)[C@H](Cc1cnc[nH]1)NC(=O)[C@H](CO)NC(=O)[C@H](CC(C)C)NC(=O)[C@H](C)NC(=O)[C@H](CCCCN)NC(=O)[C@H](Cc1c[nH]c2ccccc12)NC(=O)[C@H](CC(C)C)NC(=O)[C@H](C)NC(=O)CNC(=O)[C@H](CC(C)C)NC(=O)[C@@H](N)Cc1ccccc1)C(=O)O` [FLGALWKALSHLL]: the MIC in experiment [18] was no less than 64 µM; against Escherichia coli O157, no less than 64 µM; in the experiment on Listeria monocytogenes, 8 µM (≈ 11.8 µg/mL); in experiment [19], 4 µM (≈ 5.88 µg/mL); in the experiment on Salmonella typhimurium, no less than 64 µM; in experiment [6] it was 4 µM (≈ 5.88 µg/mL). This compound also displayed a minimum inhibitory concentration (MIC) in experiment [20] of 4 µM (≈ 5.88 µg/mL).

As to `CC(C)C[C@H](NC(=O)CNC(=O)[C@H](Cc1ccc(O)cc1)NC(=O)[C@H](Cc1cnc[nH]1)NC(=O)[C@@H]1CCCN1C(=O)[C@H](CC(C)C)NC(=O)[C@H](CCC(=O)O)NC(=O)[C@H](Cc1ccccc1)NC(=O)[C@H](C)NC(=O)[C@H](CO)NC(=O)[C@@H](N)CCCCN)C(=O)O` [KSAFELPHYGL], the MIC was greater than 500 µM in experiment [21]; 252 µM and 205 µM and 184 µM in experiment [10]; greater than 500 µM in experiment [17]; no less than 500 µM in [22]; no less than 250 µM in [23].
